The values that follow come from US9649512B2, “One or more of Vigna marina, Cocos nucifera L. or Terminalia catappa L. extracts for treating wounds, skin disorders and hair loss” (CIMTECH PTY LIMITED, priority 2009, dated 2017).

Each structure is given as a SMILES string.

In this test the test system is epithelial surface of the backs of 18 month old ovarectomized and sham ovarectomized rats. Description: Parallel study of moisturiser and antibiotic on epithelial thickness. In kind it is in vivo, rat. The text has this:
In a parallel study a moisturiser (hydroderm), the topical antibiotic Chloromycetin (chloramphenicol), coconut oil, or coconut oil extracted into ethanol were applied to the epithelial surface of the backs of 18 month old ovarectomized and sham ovarectomized rats and compared to the epithelial surface of an adjacent untreated site. […] The results also indicate that the changes noted in the epithelium are not related to any antimicrobial capacity of the extracts as the changes are not able to be replicated by chloramphenicol.

In the case of `O=C(N[C@H](CO)[C@H](O)c1ccc([N+](=O)[O-])cc1)C(Cl)Cl` [Chloromycetin (chloramphenicol), chloramphenicol], the “thickness of the treated skin compared to the untreated adjacent skin” value is on record as “No significant difference”.
